Experiments:
KDR = KDR (Homo sapiens, UniProt P35968); assay: KDR autophosphorylation ELISA in HUVEC cells; format: cell-based; parameters: endogenous in cells; host or cells: HUVEC (Lonza #C2519A); conditions: Table 3 Cellular Activities, VEGF165-stimulated, phospho-KDR ELISA
In short: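 Serum-starved (24 h) primary HUVEC were pretreated 1 h with compounds (8-point dilution, 0.3% DMSO final), then stimulated 5 min with 100 ng/mL VEGF165. Lysate phospho-KDR quantified by sandwich ELISA against a phospho-KDR standard; IC50 by 4-parameter fit, normalised to stimulated DMSO and unstimulated controls.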

Mer = target: T1, Mer (Homo sapiens, UniProt Q12866); assay: Mer autophosphorylation ELISA in transient transfected 293A cells; format: cell-based; conditions: Table 3 Cellular Activities; MERTK-transfected 293A cells, phospho-Mer ELISA
T1 construct: host or cells: 293A cells (Thermo Fisher #R70507)
T1 sequence (Q12866 21-999): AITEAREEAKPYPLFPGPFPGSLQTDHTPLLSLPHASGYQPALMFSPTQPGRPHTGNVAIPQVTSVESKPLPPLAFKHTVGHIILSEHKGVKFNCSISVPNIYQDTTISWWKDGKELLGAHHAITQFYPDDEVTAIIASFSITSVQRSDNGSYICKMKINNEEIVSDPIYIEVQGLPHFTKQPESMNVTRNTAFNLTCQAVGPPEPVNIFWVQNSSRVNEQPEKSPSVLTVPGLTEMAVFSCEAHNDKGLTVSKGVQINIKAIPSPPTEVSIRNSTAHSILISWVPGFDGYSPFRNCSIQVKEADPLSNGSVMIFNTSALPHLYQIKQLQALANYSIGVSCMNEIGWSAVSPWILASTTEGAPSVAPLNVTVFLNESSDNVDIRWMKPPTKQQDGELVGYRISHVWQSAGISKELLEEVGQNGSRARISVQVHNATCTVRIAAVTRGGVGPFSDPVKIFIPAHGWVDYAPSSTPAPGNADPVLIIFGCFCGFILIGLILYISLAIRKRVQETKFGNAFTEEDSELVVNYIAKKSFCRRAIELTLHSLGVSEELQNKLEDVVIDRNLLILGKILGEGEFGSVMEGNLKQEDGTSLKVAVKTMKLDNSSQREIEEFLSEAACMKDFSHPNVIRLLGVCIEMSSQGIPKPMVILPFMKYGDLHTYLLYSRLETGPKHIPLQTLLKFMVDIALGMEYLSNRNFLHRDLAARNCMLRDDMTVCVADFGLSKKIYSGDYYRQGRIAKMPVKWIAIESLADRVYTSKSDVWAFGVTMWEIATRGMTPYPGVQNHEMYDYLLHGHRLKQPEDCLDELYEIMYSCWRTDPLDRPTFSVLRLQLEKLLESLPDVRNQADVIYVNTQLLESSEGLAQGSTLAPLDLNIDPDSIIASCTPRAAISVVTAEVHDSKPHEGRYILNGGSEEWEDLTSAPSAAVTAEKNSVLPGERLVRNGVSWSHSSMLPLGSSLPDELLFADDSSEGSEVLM
In short: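 Phospho-Mer quantified by ELISA in lysates of transiently MERTK-transfected 293A cells after 1 h exposure to an 8-point compound series, serum-free, 0.3% DMSO. Activity normalized between DMSO-treated (100%) and reference inhibitor-treated (0%) lysates; IC50 via 4-parameter nonlinear regression.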

KDR, sequence (P35968 20-1356): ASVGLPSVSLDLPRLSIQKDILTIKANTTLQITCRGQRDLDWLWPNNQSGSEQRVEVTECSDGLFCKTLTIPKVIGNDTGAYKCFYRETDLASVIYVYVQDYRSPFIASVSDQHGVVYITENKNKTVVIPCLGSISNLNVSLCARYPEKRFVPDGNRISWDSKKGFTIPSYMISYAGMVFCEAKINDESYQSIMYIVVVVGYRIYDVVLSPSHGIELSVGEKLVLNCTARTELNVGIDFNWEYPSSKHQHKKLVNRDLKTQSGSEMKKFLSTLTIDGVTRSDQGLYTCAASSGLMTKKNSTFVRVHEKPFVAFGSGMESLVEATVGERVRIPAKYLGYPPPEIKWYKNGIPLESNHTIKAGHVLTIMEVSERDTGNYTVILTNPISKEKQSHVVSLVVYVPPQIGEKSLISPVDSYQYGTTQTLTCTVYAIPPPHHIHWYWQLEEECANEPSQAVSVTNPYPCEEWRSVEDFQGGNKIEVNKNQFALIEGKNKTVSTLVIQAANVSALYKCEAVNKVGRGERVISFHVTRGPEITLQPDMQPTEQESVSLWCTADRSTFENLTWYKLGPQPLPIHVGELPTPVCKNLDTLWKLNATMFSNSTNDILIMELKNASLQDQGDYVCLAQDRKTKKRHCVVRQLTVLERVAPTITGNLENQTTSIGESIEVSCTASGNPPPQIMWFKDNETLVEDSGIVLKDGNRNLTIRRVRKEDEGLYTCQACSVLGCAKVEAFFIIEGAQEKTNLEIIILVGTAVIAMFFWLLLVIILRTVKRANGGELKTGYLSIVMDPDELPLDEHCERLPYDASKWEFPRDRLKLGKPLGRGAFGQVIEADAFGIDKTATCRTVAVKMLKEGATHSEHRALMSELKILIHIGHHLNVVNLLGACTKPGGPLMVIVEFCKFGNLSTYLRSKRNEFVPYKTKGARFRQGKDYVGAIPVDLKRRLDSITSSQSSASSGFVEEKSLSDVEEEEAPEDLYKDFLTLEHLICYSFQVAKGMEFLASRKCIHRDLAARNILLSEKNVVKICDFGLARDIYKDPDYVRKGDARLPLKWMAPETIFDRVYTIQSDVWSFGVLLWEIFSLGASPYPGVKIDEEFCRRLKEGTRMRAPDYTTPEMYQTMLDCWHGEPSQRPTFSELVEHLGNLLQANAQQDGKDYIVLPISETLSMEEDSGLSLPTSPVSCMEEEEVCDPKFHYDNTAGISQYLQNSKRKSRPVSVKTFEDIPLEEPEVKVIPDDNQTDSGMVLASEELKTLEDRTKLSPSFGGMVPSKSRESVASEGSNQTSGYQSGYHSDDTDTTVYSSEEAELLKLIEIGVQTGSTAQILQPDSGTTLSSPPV

IC50 (KDR) [nM] | IC50 (Mer) [nM] | SMILES
≤ 100 | ≤ 100 | COc1cc2nccc(Oc3ccc(NC(=O)c4cnc(C)c(-c5cscn5)c4O)cc3F)c2nc1OC [Compound 142, N-[4-[(6,7-Dimethoxy-1,5-naphthyridin-4-yl)oxy]-3-fluorophenyl]-4-hydroxy-6-methyl-5-(1,3-thiazol-4-yl)pyridine-3-carboxamide]
≤ 100 | ≤ 100 | COc1cc2nccc(Oc3ccc(NC(=O)c4c(C)nc(C)c(-c5ccnn5C)c4O)cc3F)c2nc1OC [Compound 108, N-[4-[(6,7-Dimethoxy-1,5-naphthyridin-4-yl)oxy]-3-fluoro-phenyl]-4-hydroxy-2,6-dimethyl-5-(2-methylpyrazol-3-yl) pyridine-3-carboxamide]
≤ 100 | ≤ 100 | COc1cnc2c(Oc3ccc(NC(=O)c4cnc(C)c(-c5ccoc5)c4O)cc3F)ccnc2c1 [Compound 99, N-[3-Fluoro-4-[(7-methoxy-1,5-naphthyridin-4-yl)oxy]phenyl]-5-(3-furyl)-4-hydroxy-6-methyl-pyridine-3-carboxamide]
300 to 1000 | ≤ 100 | COc1cc2nccc(Oc3cc(F)c(NC(=O)c4c(C)n(C)c(C)c(-c5ccco5)c4=O)cc3F)c2nc1OC [Compound 163, N-[4-[(6,7-Dimethoxy-1,5-naphthyridin-4-yl)oxy]-2,5-difluorophenyl]-5-(furan-2-yl)-1,2,6-trimethyl-4-oxopyridine-3-carboxamide]
300 to 1000 | ≤ 100 | COc1cc2nccc(Oc3ccc(NC(=O)c4c(C)n(C)c(C)c(-c5cccs5)c4=O)cc3)c2nc1OC [Compound 167, N-[4-[(6,7-Dimethoxy-1,5-naphthyridin-4-yl)oxy]phenyl]-1,2,6-trimethyl-4-oxo-5-thiophen-2-ylpyridine-3-carboxamide]
≤ 100 | ≤ 100 | COc1nc2c(Oc3ccc(NC(=O)c4c(C)n(C)c(C)c(-c5ccco5)c4=O)cc3F)ccnc2cc1OCCC1CCC1 [Compound 337, N-[4-[[7-(2-Cyclobutylethoxy)-6-methoxy-1,5-naphthyridin-4-yl]oxy]-3-fluorophenyl]-5-(furan-2-yl)-1,2,6-trimethyl-4-oxopyridine-3-carboxamide]
≤ 100 | ≤ 100 | COc1cc2nccc(Oc3ccc(NC(=O)c4c(C)n(C)c(C)c(-c5cccs5)c4=O)cc3F)c2nc1OC [Compound 168, N-[4-[(6,7-Dimethoxy-1,5-naphthyridin-4-yl)oxy]-3-fluorophenyl]-1,2,6-trimethyl-4-oxo-5-thiophen-2-ylpyridine-3-carboxamide]
≤ 100 | ≤ 100 | COCc1nc(C)c(-c2cccs2)c(O)c1C(=O)Nc1ccc(Oc2ccnc3cc(OC)c(OC)nc23)c(F)c1 [Compound 115, N-[4-[(6,7-Dimethoxy-1,5-naphthyridin-4-yl)oxy]-3-fluorophenyl]-4-hydroxy-2-(methoxymethyl)-6-methyl-5-thiophen-2-ylpyridine-3-carboxamide]
≤ 100 | ≤ 100 | COc1cc2nccc(Oc3ccc(NC(=O)c4cnc(C)c(-c5nccs5)c4O)cc3F)c2nc1OC [Compound 143, N-[4-[(6,7-Dimethoxy-1,5-naphthyridin-4-yl)oxy]-3-fluorophenyl]-4-hydroxy-6-methyl-5-(1,3-thiazol-2-yl)pyridine-3-carboxamide]
≤ 100 | ≤ 100 | COc1cc2nccc(Oc3ccc(NC(=O)c4c(C)nc(C)c(-c5cccs5)c4O)cc3F)c2nc1OC [Compound 107]
≤ 100 | ≤ 100 | COc1cc2nccc(Oc3ccc(NC(=O)c4cnc(C)c(-c5ccc(C(C)C)o5)c4O)cc3F)c2nc1OC [Compound 154, N-[4-[(6,7-Dimethoxy-1,5-naphthyridin-4-yl)oxy]-3-fluorophenyl]-4-hydroxy-6-methyl-5-(5-propan-2-ylfuran-2-yl)pyridine-3-carboxamide]
≤ 100 | ≤ 100 | COc1cc2nccc(Oc3ccc(NC(=O)c4c(C)nc(C)c(-c5ccc(C)s5)c4O)cc3F)c2nc1OC [Compound 111, N-[4-[(6,7-Dimethoxy-1,5-naphthyridin-4-yl)oxy]-3-fluoro-phenyl]-4-hydroxy-2,6-dimethyl-5-(5-methyl-2-thienyl)pyridine-3-carboxamide]
≤ 100 | ≤ 100 | COc1ccc2nccc(Oc3ccc(NC(=O)c4cnc(C)c(-c5cccs5)c4O)cc3F)c2n1 [Compound 128, N-[3-Fluoro-4-[(6-methoxy-1,5-naphthyridin-4-yl)oxy]phenyl]-4-hydroxy-6-methyl-5-thiophen-2-ylpyridine-3-carboxamide]
≤ 100 | ≤ 100 | COc1cc2nccc(Oc3ccc(NC(=O)c4cnc(C)c(-c5cc(C)nn5C)c4O)cc3F)c2nc1OC [Compound 136, N-[4-[(6,7-Dimethoxy-1,5-naphthyridin-4-yl)oxy]-3-fluorophenyl]-5-(2,5-dimethylpyrazol-3-yl)-4-hydroxy-6-methylpyridine-3-carboxamide]
300 to 1000 | ≤ 100 | COc1cnc2c(Oc3ccc(NC(=O)c4cn(CCF)c(C)c(-c5ccoc5)c4=O)cc3F)ccnc2c1 [Compound 334, 1-(2-Fluoroethyl)-N-[3-fluoro-4-[(7-methoxy-1,5-naphthyridin-4-yl)oxy]phenyl]-5-(furan-3-yl)-6-methyl-4-oxopyridine-3-carboxamide]
≤ 100 | ≤ 100 | COc1cnc2c(Oc3ccc(NC(=O)c4cnc(C)c(-c5cc(C)cs5)c4O)cc3F)ccnc2c1 [Compound 102, N-[3-Fluoro-4-[(7-methoxy-1,5-naphthyridin-4-yl)oxy]phenyl]-4-hydroxy-6-methyl-5-(4-methyl-2-thienyl) pyridine-3-carboxamide]
≤ 100 | ≤ 100 | COc1cc2nccc(Oc3ccc(NC(=O)c4cnc(C)c(-c5cnoc5)c4O)cc3F)c2nc1OC [Compound 140, N-[4-[(6,7-Dimethoxy-1,5-naphthyridin-4-yl)oxy]-3-fluorophenyl]-4-hydroxy-6-methyl-5-(1,2-oxazol-4-yl)pyridine-3-carboxamide]
≤ 100 | ≤ 100 | C=CCc1ccc(-c2c(C)ncc(C(=O)Nc3ccc(Oc4ccnc5cc(OC)c(OC)nc45)c(F)c3)c2O)o1 [Compound 155, N-[4-[(6,7-Dimethoxy-1,5-naphthyridin-4-yl)oxy]-3-fluorophenyl]-4-hydroxy-6-methyl-5-(5-prop-2-enylfuran-2-yl)pyridine-3-carboxamide]
≤ 100 | ≤ 100 | COc1cc2nccc(Oc3ccc(NC(=O)c4c(C)nc(C)c(-c5ccoc5)c4O)cc3F)c2nc1OC [Compound 112, N-[4-[(6,7-Dimethoxy-1,5-naphthyridin-4-yl)oxy]-3-fluoro-phenyl]-5-(3-furyl)-4-hydroxy-2,6-dimethyl-pyridine-3-carboxamide]
≤ 100 | ≤ 100 | COc1cc2nccc(Oc3ccc(NC(=O)c4c(C)nc(C)c(-c5ccco5)c4O)cc3F)c2nc1OC [Compound 135, N-[4-[(6,7-Dimethoxy-1,5-naphthyridin-4-yl)oxy]-3-fluorophenyl]-5-(furan-2-yl)-4-hydroxy-2,6-dimethylpyridine-3-carboxamide]
300 to 1000 | ≤ 100 | COc1cnc2c(Oc3ccc(NC(=O)c4cn(CCF)c(C)c(-c5ccc(C)s5)c4=O)cc3F)ccnc2c1 [Compound 329, 1-(2-Fluoroethyl)-N-[3-fluoro-4-[(7-methoxy-1,5-naphthyridin-4-yl)oxy]phenyl]-6-methyl-5-(5-methylthiophen-2-yl)-4-oxopyridine-3-carboxamide]
